# Source: US20260098008A1, “COVALENT, CHEMOGENETIC ACTIVATORS FOR K2P POTASSIUM CHANNELS AND USES THEREOF” (THE REGENTS OF THE UNIVERSITY OF CALIFORNIA, priority 2022, published 2026)
# Changes are numbered by the printed parent chain.
# What was measured:
# Assay type in all cases: cell-based
# K2P2.1 (TREK-1) = target: T1, K2P2.1 (TREK-1) (Mus musculus, UniProt P97438); assay: Two-electrode voltage clamp (TEVC) in Xenopus oocytes; settings: for Fold-activation (I activator/I control): currents at 0 mV
# T1 construct: expressed in transfected cells; host or cells: Xenopus laevis oocytes injected with mRNA (pGEMHE/pMO vector)
# T1 sequence (P97438 1-411 isoform P97438-2): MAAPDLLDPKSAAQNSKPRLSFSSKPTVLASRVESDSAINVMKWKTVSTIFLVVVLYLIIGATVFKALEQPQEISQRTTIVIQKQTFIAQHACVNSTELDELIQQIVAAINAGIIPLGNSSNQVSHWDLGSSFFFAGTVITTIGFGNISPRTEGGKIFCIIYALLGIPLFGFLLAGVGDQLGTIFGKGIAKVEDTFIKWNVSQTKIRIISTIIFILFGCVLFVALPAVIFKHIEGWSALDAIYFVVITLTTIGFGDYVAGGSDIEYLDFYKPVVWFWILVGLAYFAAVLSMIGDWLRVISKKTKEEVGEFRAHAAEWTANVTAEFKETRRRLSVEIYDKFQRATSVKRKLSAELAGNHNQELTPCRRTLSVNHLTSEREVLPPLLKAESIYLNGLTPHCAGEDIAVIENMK
# Description: (§1) Mouse K2P2.1 (TREK-1) (Genbank accession number: NP_034737.2), mouse K2P10.1 (TREK-2) (NM_001316665.1), mouse K2P4.1 (TRAAK) (NM_008431.3), human K2P4.1 (TRAAK) (NM_033310.2) and mouse K2P18.1(TRESK) (NM_207261.3) were used for this study. Point mutations were introduced by site-directed mutagenesis using custom primers and confirmed by sequencing before use. For studies using Xenopus oocytes, K2P channels were subcloned into a previously reported pGEMHE/pMO vector (46). For expression in HEK293 cells, mouse K2P2.1 (TREK-1) and mutants were expressed from a previously described pIRES2-EGFP vector in HEK293 cells (46,47). K2P2.1 (TREK-1) tandems were constructed by connecting the open reading frames for the individual subunits with a linker encoding the […] (SEQ ID NO: 19) sequence. Tandems used for HEK293 cells included an N-terminal HA tag ([…] (SEQ ID NO: 20)) on the first subunit.
# (§2) Xenopus laevis oocytes were harvested according to UCSF IACUC Protocol AN129690 and digested using collagenase (Worthington Biochemical Corporation, #LS004183, 0.8-1.0 mg/mL) in Ca^21-free ND96 (96 mM NaCl, 2 mM KCl, 3.8 mM MgCl2, 5 mM HEPES pH 7.4) immediately post-harvest, as previously reported (31,33). Oocytes were maintained at 18° C. in ND96 (96 mM NaCl, 2 mM KCl, 1.8 mM CaCl2, 2 mM MgCl2, 5 mM HEPES pH 7.4) supplemented with antibiotics (100 units mL^−1 penicillin, 100 μg mL^−1 streptomycin, 50 μg mL^−1 gentimycin) and used for experiments within one week of harvest.
# (§3) Defolliculated stage V-VI oocytes were microinjected with 0.5-36 ng mRNA and currents were recorded within 16-48 h hours of injection.
# (§4) For recordings, oocytes were impaled with borosilicate recording microelectrodes (0.4-2.0 MΩ resistance) backfilled with 3 M KCl and were subjected to constant perfusion of ND96 at a rate of 3 ml min^−1. Recording solutions containing K2P activators were prepared immediately prior to use from DMSO stocks (20-100 mM), with final DMSO concentrations of 0.1%. Currents were evoked from a −80 mV holding potential followed by a 300 ms ramp from −150 mV to +50 mV. Data were recorded using a GeneClamp 500B amplifier (MDS Analytical Technologies) controlled by pCLAMP8 software (Molecular Devices), and digitized at 1 kHz using Digidata 1332 Å digitizer (MDS Analytical Technologies). For each recording, control solution (ND96) was perfused over a single oocyte until current was stable before switching to solutions containing the test compounds at various concentrations. Representative traces and dose response plots were generated in GraphPad Prism 9.
# K2P4.1 (TRAAK)^CG* = assay: TEVC in Xenopus oocytes; settings: 20 μM
# Description: as §1, §2, §3, §4
# Q258K K2P4.1 (TRAAK)^CG* = target: T2, Q258K K2P4.1 (TRAAK)^CG* (Homo sapiens, UniProt Q9NYG8, Q232K/S92C); assay: TEVC in Xenopus oocytes; settings: 20 μM; after 2 min
# T2 construct: expressed in transfected cells; host or cells: Xenopus laevis oocytes injected with mRNA
# T2 sequence (Q9NYG8 1-393 S92C/Q232K): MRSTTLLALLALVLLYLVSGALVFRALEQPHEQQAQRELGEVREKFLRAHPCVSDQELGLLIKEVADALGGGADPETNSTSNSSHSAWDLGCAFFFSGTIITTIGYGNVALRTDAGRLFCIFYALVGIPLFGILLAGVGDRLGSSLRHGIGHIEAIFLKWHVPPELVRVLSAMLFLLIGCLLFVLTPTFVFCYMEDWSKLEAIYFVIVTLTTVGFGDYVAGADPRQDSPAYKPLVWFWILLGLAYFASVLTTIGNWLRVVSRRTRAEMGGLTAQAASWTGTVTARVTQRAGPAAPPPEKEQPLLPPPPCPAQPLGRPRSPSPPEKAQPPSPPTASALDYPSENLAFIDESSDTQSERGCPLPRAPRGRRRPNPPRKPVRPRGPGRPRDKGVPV
# Description: as §1, §2, §3, §4
# [1] = target: T3, CG*-WT tandem K2P2.1 (TREK-1) (Mus musculus, UniProt P97438, S146C); assay: TEVC in Xenopus oocytes, tandem channels; settings: 20 μM; for Fold-activation (I activator/I control): sequential application, Xenopus oocytes
# T3 construct: expressed in transfected cells; host or cells: Xenopus laevis oocytes injected with mRNA
# T3 sequence (P97438 1-411 isoform P97438-2 S131C): T1 sequence (P97438 1-411 isoform P97438-2) with S131C
# T3 sequence (P97438 1-411 isoform P97438-2): T1 sequence (P97438 1-411 isoform P97438-2)
# Description: as §1, §2, §3, §4
# [2] = target: T4, CG*-CG* tandem K2P2.1 (TREK-1) (Mus musculus, UniProt P97438, S146C); assay: TEVC in Xenopus oocytes, tandem channels; settings: 20 μM, sequential application
# T4 construct: expressed in transfected cells; host or cells: Xenopus laevis oocytes injected with mRNA
# T4 sequence (P97438 1-411 isoform P97438-2 S131C) 1: T1 sequence (P97438 1-411 isoform P97438-2) with S131C
# T4 sequence (P97438 1-411 isoform P97438-2 S131C) 2: T1 sequence (P97438 1-411 isoform P97438-2) with S131C
# Description: as §1, §2, §3, §4
# [3] = target: T5, WT-WT tandem K2P2.1 (TREK-1) (Mus musculus, UniProt P97438); assay: TEVC in Xenopus oocytes, tandem channels; settings: 20 μM, sequential application
# T5 construct: expressed in transfected cells; host or cells: Xenopus laevis oocytes injected with mRNA
# T5 sequence (P97438 1-411 isoform P97438-2) 1: T1 sequence (P97438 1-411 isoform P97438-2)
# T5 sequence (P97438 1-411 isoform P97438-2) 2: T1 sequence (P97438 1-411 isoform P97438-2)
# Description: as §1, §2, §3, §4
"Reversibility of activation on washout (K2P2.1 (TREK-1); 20 μM, Xenopus oocytes)","Fold-activation (I activator/I control) (K2P2.1 (TREK-1); 20 μM, Xenopus oocytes)",Emax (IML335/Icontrol) (K2P2.1 (TREK-1); TEVC at 0 mV),"EC50 (K2P2.1 (TREK-1); TEVC at 0 mV, normalized to initial currents)",Fold-activation (I activator/I control) (Q258K K2P4.1 (TRAAK)^CG*),Fold-activation (I activator/I control) [1],Fold-activation (I activator/I control) [2],Fold-activation (I activator/I control) [3],"Fold-activation after compound washout (K2P2.1 (TREK-1); 20 μM, after washout, Xenopus oocytes)",Fold-activation relative to activation of the CG*-CG* homodimer [1],SMILES,Fold-activation (I activator/I control) (K2P4.1 (TRAAK)^CG*; after 2 min),Reversibility of activation (K2P4.1 (TRAAK)^CG*; Xenopus oocytes),Fold-activation (I activator/I control) (K2P4.1 (TRAAK)^CG*; longer application (6 min) to approach maximal activation)
immediate reversal,6.5 fold,15.8±1.3 fold activation,24 ± 4 µM,3.7±0.3 fold,5.0±0.5 fold,4.5±0.3 fold,6.8 ± 0.5 fold,–,–,"CS(=O)(=O)Nc1ccc(C(=O)NCc2ccc(Cl)cc2Cl)cc1 [ML335, reference compound]",1.9±0.1 fold,–,–
–,2.0±0.2 fold,–,–,7.4 ± 0.6 fold,8.9 ± 1.1 fold,14.7 ± 0.9 fold,1.37 ± 0.07 fold,4.0 ± 0.6 fold,60-80%,O=C(NCc1ccc(Cl)cc1Cl)c1ccc(N2C(=O)C=CC2=O)cc1 [CAT335],4.2±0.6 fold,irreversibly activated,11±1 fold
